Reference: ChEMBL document CHEMBL1150263, “Combining docking, molecular dynamics and the linear interaction energy method to predict binding modes and affinities for non-nucleoside inhibitors to HIV-1 reverse transcriptase” (J Med Chem, 2008)

Target: Human immunodeficiency virus type 1 reverse transcriptase (Human immunodeficiency virus 1, UniProt Q72547)
Assay: Inhibition of HIV1 reverse transcriptase

Row | SMILES | IC50 [nM]
1 | CCCc1c(C)[nH]c(=O)c(N(C)C)c1Cc1cc(C)cc(C)c1 | 50
2 | CCc1c(C)[nH]c(=O)c(N(C)C)c1Cc1cc(C)cc(C)c1 | 8
3 | Cc1cc(C)cc(Cc2c(C)c(C(C)C)[nH]c(=O)c2N(C)C)c1 | 794
4 | CCc1c(C)[nH]c(=O)c(NNC(=S)Nc2ccccc2)c1Cc1cccc(C)c1 | 3160
5 | CCc1c(C)[nH]c(=O)c(NNC(N)=S)c1Cc1cccc(C)c1 | 316
6 | CCC1C(Cc2cccc(C)c2)=C(N(C)CCO)C(=O)NC1C (stereo not drawn) | 5

Other lines, results leading:

Row | IC50 [nM] | SMILES
7 | 10 | CCc1[nH]c(=O)c(N(C)C)c(Cc2cc(C)cc(C)c2)c1C
8 | 398 | Cc1cc(C)cc(Cc2cc(C)[nH]c(=O)c2N(C)C)c1
9 | 50 | Cc1cc(C)cc(Cc2c(CC(C)C)c(C)[nH]c(=O)c2N(C)C)c1
10 | 5 | Cc1cc(C)cc(Cc2c(C)c(C)[nH]c(=O)c2N(C)C)c1
11 | 7940 | Cc1cc(C)cc(Cc2cc[nH]c(=O)c2N(C)C)c1
12 | 10 | Cc1cc(C)cc(Cc2c3c([nH]c(=O)c2N(C)C)CCCC3)c1
13 | 25100 | CCNC(=S)NNc1c(Cc2cccc(C)c2)c(CC)c(C)[nH]c1=O
